“And” between values parts separate entries of the source, which are not always exact repeats. Equal values may be shown once.
Assay: octanol-water distribution coefficient by slow stirring, evaporation/re-dissolution and surface tension vs. concentration calibration curve
Details: for conc. Caq (concentration in the aqueous layer): after equilibration with octanol, initial 1 g/L; for logP: initial 1 g/L in aqueous layer, residue in 0.2 M KCl, single samples of replicates A, B
Experimental: Aqueous surfactant solution is equilibrated with octanol. The concentration of surfactant in the aqueous phase after equilibration is determined from the surface tension using a calibration curve. Interference from octanol is prevented by first removing it by evaporation and re-dissolution. The concentration of surfactant in the octanol layer is calculated from the change in concentration in the aqueous layer. Alternatively an aliquot of the octanol layer can be evaporated and re-dissolved in water to determine the concentration directly via surface tension.
Preferably, equal or approximately equal volumes of water and octanol are used. The preferred method is stirring slowly for several hours. The minimum stirring time required will depend on the system and can, if necessary, be determined by running experiments with different stirring times. […] The stirring speed must be kept low enough for there to be two distinct phases during the whole course of the experiment. Other types of agitation (e.g. shaking, rolling, vibration) may also be used, provided they are gentle enough to avoid any mixing of the phases.
Evaporating an aliquot of the aqueous phase and re-dissolving the residue in water or electrolyte solution. This removes octanol, which is surface active and would therefore interefere with the subsequent concentration determination via surface tension. It is covenient to take an aliquot of between 1 and 10 mL and re-dissolve in a larger volume of water (20-500 mL).
The surface tension may be measured by any convenient method, for example, the plate, ring or bubble pressure methods. Preferably a method should be used which allows an equilibration time of several minutes e.g. the plate method.
The calibration curve is obtained by measuring the surface tension of the surfactant at various concentrations. Exactly the same procedure should be used as for the re-dissolved residue solution. If an electrolyte solution is used in the dilution step, it must also be used for the calibration curve.
P=Vaq(c0−caq)/(Voctcaq) (2)
P=Vaq(c0−caq)/(Voctcnon-micellised) (3) • For cmc<caq cnon-micellised=cmc • For cmc≧caq cnon-micellised=caq
Equilibration experiment: 100 mL of a 1 g/L aqueous solution of the surfactant and 100 mL octanol were placed in a conical flask. The two-phase system was stirred for eight hours on a magnetic stirrer. The stirring speed (100 rpm) was low enough for there to be two distinct layers. After the stirrer was switched off, the system was allowed to stand overnight. Then a 2 mL sample of the aqueous phase was placed in a tensiometer glass and evaporated to dryness in a drying cabinet. The residue was redissolved in 50 mL of 0.2 M KCl. The surface tension of this solution was measured with the Pt plate method. The solution was then diluted five times with 0.2 M KCl and the surface tension measured again. The concentration of surfactant was determined by comparison with a calibration curve. A duplicate experiment was run to check the reproducibility.
Equilibration experiment: 100 mL of a 1 g/L aqueous solution of the surfactant and 100 mL octanol were placed in a conical flask. The two-phase system was stirred for eight hours on a magnetic stirrer. The stirring speed (100 rpm) was low enough for there to be two distinct layers. After the stirrer was switched off, the system was allowed to stand overnight. Then a 2 mL sample of the aqueous phase was placed in a tensiometer glass evaporated to dryness in a drying cabinet. The residue was redissolved in 50 mL of 0.2 M KCl. The surface tension of this solution was measured with the Pt plate method. The concentration of surfactant was determined by comparison with a calibration curve.

Row | Substance | Non-micellised surfactant cnon-micellised (aqueous layer at equilibrium, cmc greater than caq) | Equilibrium concentration in aqueous layer, caq (original concentration 1 g/L, 100 mL water/100 mL octanol, stirred 8 h) | Concentation in octanol layer, c0-caq (original concentration 1 g/L, from mass balance) | conc. Caq (concentration in the aqueous layer) (dilution factor 25) | conc. Caq (concentration in the aqueous layer) (dilution factor 125) | logP (100 mL water/100 mL octanol, stirred 8 h, dilution factor 25) | logP (100 mL water/100 mL octanol, stirred 8 h, dilution factor 125) | logP mean (initial concentration in the aqueous layer 1 g/L, mean of all samples and dilutions)
1 | C10-C13 linear alkylbenzene sulfonate | 0.16 g/L | 0.16 g/L | 840 µg/mL |  |  |  |  | 
2 | C22-amidoamine betaine |  |  |  | 550 µg/mL and 630 µg/mL and 600 µg/mL | 570 µg/mL and 590 µg/mL and 630 µg/mL | −0.09 and −0.22 and −0.18 | −0.12 and −0.15 and −0.22 | −0.17
